Assay results reported in patent publication US20050112573A1, “Method of detecting toxic substance” (priority 2001, published 2005).

Test system: yeast genes (level of expressed mRNA)
Experiment: DNA chip analysis of expressed mRNA of yeast genes after 2 h culture with a toxic chemical substance
Format: cell-based, Saccharomyces cerevisiae S288C
Conditions: for The level of expressed mRNA in the presence of chemical substance/ (ratio to absence of chemical substance): stress protein genes, DNA chip; for The level of expressed mRNA in the presence of chemical substance/ in its absence, gene YPR184W: yeast gene YPR184W
Protocol: Yeast (Saccharomyces cerevtisiae S288C (α SUC2mal mel gap2 CUP1)) were cultured at 25° C. on YPD medium (yeast extract 1%, polypepton 2%, glucose 2%). One of toxic chemical substances was added to the cell at logarithmic growth phase, and the cell was further cultured for two hours. Cell was cultured without any chemical substance in the same condition, and was used as control. Concentrations of the chemical substances were defined to inhibit the growth of the yeast but not lead to death.
After the completion of cultivation, the culture was centrifuged to collect the cells. To the cells, sodium acetate buffer (50 mM sodium acetate, 10 mM EDTA, 1% SDS) was added, and the mixture was shaken at 65° C. for five minutes, followed by returning to room temperature, and obtaining the supernatant, which procedure was repeated two times. To the supernatant, ½ amount of a solution of phenol/chloroform was added, and the mixture was centrifuged to give a supernatant, which was added with an equal amount of chloroform, and the mixture was centrifuged to give a supernatant. To the supernatant, an equal amount of isopropanol containing 0.3 M sodium acetate was added, and the mixture was allowed to stand at room temperature for 30 minutes, after which the mixture was centrifuged to give a sediment of the whole RNAs. Seventy % ethanol was added to the sediment, and the mixture was again centrifuged to give a sediment, which was then dried and dissolved in water. mRNA was isolated from the whole RNAs as followings. In view of the fact that a poly A chain is attached to the 3′ terminus of mRNA, a polynucleotide having a poly T structure which was immobilized on the surface of latex beads was used to trap the mRNA, and then the mRNA was washed and eluted with spine column (Oligotex-dT30<Super>mRNA Purification Kit, Takara). Reverse transcription of the mRNA was conducted with a reverse transcriptase (Super Script II Reverse Transcriptase; catalogue No. 18064-014, GibcoBRL) using fluorescence-labeled nucleotides to give cDNAs that were introduced with Cy3-dUTP or Cy5-dUTP during the reverse transcription.
The labeled cDNAs were dissolved in TE buffer (10 mM Tris-HCl/1 mM EDTA, pH8.0), and the solution was dropped on the DNA chip containing the whole genes of yeast (DNA Chip Research Inc. Japan) so that the cDNAs were hybridized on the DNA chip at 65° C. for over 12 hours. The fluoresces intensity of the DNA chip was read with a scanner, and the ratio relative to the fluorescence intensity resulting from the absence of chemical substance was estimated as the following, which is shown in Tables 1 to 9: [formula]
In the Tables, “Intensity” indicated in the rightmost column is a value of the level of expressed mRNA of each gene in control cells as divided by the average level of the expressions of the whole genes.

CCCCCCCCCCCCOS(=O)(=O)[O-].[Na+] [(18), sodium lauryl sulfate]
The level of expressed mRNA in the presence of chemical substance/The level of expressed mRNA in the absence of chemical substance (yeast gene YNL006W): 1.3 | The level of expressed mRNA in the presence of chemical substance/The level of expressed mRNA in the absence of chemical substance (yeast gene YNL007C): 1.0 | The level of expressed mRNA in the presence of chemical substance/ (in its absence), gene YNL025C (yeast gene YNL025C, ratio of DNA chip fluorescence intensity to that without chemical substance): 1.3 | The level of expressed mRNA in the presence of chemical substance/ (ratio to absence of chemical substance) (yeast gene YNL064C): 0.7 | The level of expressed mRNA in the presence of chemical substance/ (ratio to absence), gene YNL073W (yeast gene YNL073W, mitochondria-located protein genes, 2 h culture with chemical): 1.0 | The level of expressed mRNA in the presence of chemical substance/The level of expressed mRNA in the absence of chemical substance (yeast gene YNL093W): 3.1 | The level of expressed mRNA in the presence of chemical substance/ (in its absence), gene YNL192W (yeast gene YNL192W, ratio of DNA chip fluorescence intensity to that without chemical substance): 2.8 | The level of expressed mRNA in the presence of chemical substance/The level of expressed mRNA in the absence of chemical substance (yeast gene YNL333W): 1.1 | The level of expressed mRNA in the presence of chemical substance/The level of expressed mRNA in the absence of chemical substance (yeast gene YNR010W): 2.3 | The level of expressed mRNA in the presence of chemical substance/The level of expressed mRNA in the absence of chemical substance (yeast gene YNR069C): 0.9 | The level of expressed mRNA in the presence of chemical substance/ (in its absence), gene YNR072W (yeast gene YNR072W, ratio of DNA chip fluorescence intensity to that without chemical substance): 1.0 | The level of expressed mRNA in the presence of chemical substance/ (ratio to absence of chemical substance) (yeast gene YNR076W): 0.8 | The level of expressed mRNA in the presence of chemical substance/The level of expressed mRNA in the absence of chemical substance (yeast gene YOL013C): 1.4 | The level of expressed mRNA in the presence of chemical substance/ (ratio to absence), gene YOL096C (yeast gene YOL096C, mitochondria-located protein genes, 2 h culture with chemical): 1.2 | The level of expressed mRNA in the presence of chemical substance/ (in its absence), gene YOL096C (yeast gene YOL096C, ratio of DNA chip fluorescence intensity to that without chemical substance): 1.2 | The level of expressed mRNA in the presence of chemical substance/ (in its absence), gene YOL108C (yeast gene YOL108C, ratio of DNA chip fluorescence intensity to that without chemical substance): 2.7 | The level of expressed mRNA in the presence of chemical substance/ (in its absence), gene YOL116W (yeast gene YOL116W, ratio of DNA chip fluorescence intensity to that without chemical substance): 1.4 | The level of expressed mRNA in the presence of chemical substance/ (ratio to absence of chemical substance) (yeast gene YOL161C): 1.0 | The level of expressed mRNA in the presence of chemical substance/The level of expressed mRNA in the absence of chemical substance (yeast gene YOL164W): 1.3 | The level of expressed mRNA in the presence of chemical substance/ (ratio to absence of chemical substance) (yeast gene YOR008C): 1.3 | The level of expressed mRNA in the presence of chemical substance/ (ratio to absence of chemical substance) (yeast gene YOR009W): 0.8 | The level of expressed mRNA in the presence of chemical substance/ (ratio to absence of chemical substance) (yeast gene YOR010C): 0.6 | The level of expressed mRNA in the presence of chemical substance/The level of expressed mRNA in the absence of chemical substance (yeast gene YOR036W): 1.7 | The level of expressed mRNA in the presence of chemical substance/ (in its absence), gene YOR103C (yeast gene YOR103C, ratio of DNA chip fluorescence intensity to that without chemical substance): 1.5 | The level of expressed mRNA in the presence of chemical substance/The level of expressed mRNA in the absence of chemical substance (yeast gene YOR117W): 0.9 | The level of expressed mRNA in the presence of chemical substance/The level of expressed mRNA in the absence of chemical substance (yeast gene YOR124C): 1.0 | The level of expressed mRNA in the presence of chemical substance/The level of expressed mRNA in the absence of chemical substance (yeast gene YOR132W): 1.6 | The level of expressed mRNA in the presence of chemical substance/The level of expressed mRNA in the absence of chemical substance (yeast gene YOR157C): 1.2 | The level of expressed mRNA in the presence of chemical substance/ (in its absence), gene YOR180C (yeast gene YOR180C, ratio of DNA chip fluorescence intensity to that without chemical substance): 2.3 | The level of expressed mRNA in the presence of chemical substance/The level of expressed mRNA in the absence of chemical substance (yeast gene YOR181W): 0.6 | The level of expressed mRNA in the presence of chemical substance/The level of expressed mRNA in the absence of chemical substance (yeast gene YOR185C): 1.1 | The level of expressed mRNA in the presence of chemical substance/The level of expressed mRNA in the absence of chemical substance (yeast gene YOR198C): 1.5 | The level of expressed mRNA in the presence of chemical substance/ (in its absence), gene YOR251C (yeast gene YOR251C, ratio of DNA chip fluorescence intensity to that without chemical substance): 1.3 | The level of expressed mRNA in the presence of chemical substance/The level of expressed mRNA in the absence of chemical substance (yeast gene YOR259C): 1.5 | The level of expressed mRNA in the presence of chemical substance/The level of expressed mRNA in the absence of chemical substance (yeast gene YOR261C): 1.9 | The level of expressed mRNA in the presence of chemical substance/The level of expressed mRNA in the absence of chemical substance (yeast gene YOR288C): 1.6 | The level of expressed mRNA in the presence of chemical substance/ (ratio to absence), gene YOR316C (yeast gene YOR316C, mitochondria-located protein genes, 2 h culture with chemical): 1.0 | The level of expressed mRNA in the presence of chemical substance/ (in its absence), gene YOR348C (yeast gene YOR348C, ratio of DNA chip fluorescence intensity to that without chemical substance): 0.9 | The level of expressed mRNA in the presence of chemical substance/The level of expressed mRNA in the absence of chemical substance (yeast gene YOR355W): 0.9 | The level of expressed mRNA in the presence of chemical substance/ (in its absence), gene YOR363C (yeast gene YOR363C, ratio of DNA chip fluorescence intensity to that without chemical substance): 1.8 | The level of expressed mRNA in the presence of chemical substance/The level of expressed mRNA in the absence of chemical substance (yeast gene YOR383C): 1.1 | The level of expressed mRNA in the presence of chemical substance/ (ratio to absence), gene YPL040C (yeast gene YPL040C, mitochondria-located protein genes, 2 h culture with chemical): 1.1 | The level of expressed mRNA in the presence of chemical substance/ (ratio to absence of chemical substance) (yeast gene YPL059W): 1.3 | The level of expressed mRNA in the presence of chemical substance/The level of expressed mRNA in the absence of chemical substance (yeast gene YPL089C): 1.1 | The level of expressed mRNA in the presence of chemical substance/The level of expressed mRNA in the absence of chemical substance (yeast gene YPL109C): 1.2 | The level of expressed mRNA in the presence of chemical substance/ (ratio to absence), gene YPL134C (yeast gene YPL134C, mitochondria-located protein genes, 2 h culture with chemical): 1.3 | The level of expressed mRNA in the presence of chemical substance/ (ratio to absence of chemical substance) (yeast gene YPL140C): 1.4 | The level of expressed mRNA in the presence of chemical substance/ (in its absence), gene YPL148C (yeast gene YPL148C, ratio of DNA chip fluorescence intensity to that without chemical substance): 1.1 | The level of expressed mRNA in the presence of chemical substance/The level of expressed mRNA in the absence of chemical substance (yeast gene YPL149W): 2.9 | The level of expressed mRNA in the presence of chemical substance/The level of expressed mRNA in the absence of chemical substance (yeast gene YPL154C): 2.0 | The level of expressed mRNA in the presence of chemical substance/ (ratio to absence of chemical substance) (yeast gene YPL194W): 0.8 | The level of expressed mRNA in the presence of chemical substance/ (ratio to absence of chemical substance) (yeast gene YPR005C): 1.1 | The level of expressed mRNA in the presence of chemical substance/The level of expressed mRNA in the absence of chemical substance (yeast gene YPR103W): 1.5 | The level of expressed mRNA in the presence of chemical substance/The level of expressed mRNA in the absence of chemical substance (yeast gene YPR108W): 1.3 | The level of expressed mRNA in the presence of chemical substance/ (in its absence), gene YPR165W (yeast gene YPR165W, ratio of DNA chip fluorescence intensity to that without chemical substance): 2.7 | The level of expressed mRNA in the presence of chemical substance/ in its absence, gene YPR184W (energy system protein genes, 2 h culture with the chemical, ratio to control without chemical): 1.7 | The level of expressed mRNA in the presence of chemical substance/ in its absence, gene YPR184W (ratio of DNA chip fluorescence intensity to that without chemical substance): 1.7
